Tests used:
[1] = target: T1, human D2R/β-arrestin (Homo sapiens (Human), UniProt P14416); assay: cell-based; details: cAMP Antagonist, CHO-K1 cell line expressing human D2R/β-arrestin; quinpirole used as agonist
Description: The detection reagents are then added, and the read-out is detected.
Cells were prepared for assays by growing cultures for up to 2 weeks (from about 6-20 passages). A vial of frozen cells was thawed in a water bath held at 37° C. The cells were then transferred into a 50 ml tube with 10 ml growth media. The vial was rinsed with growth media and the contents transferred to the 50 ml tube. The 50 ml tube was centrifuged at 1200 rpm for 5 minutes at room temperature. […] When the cells reached about 90% confluence (approximately 3 days between passages), the cells were passaged and used for either the agonist or antagonist assays as described below.
The cells were prepared for Gi/cAMP assays as described above. The assays were performed using a PE Lance Ultra cAMP kit (TRF0263). The cells were grown on 225 mm dishes, then washed once with 1×PBS (Cellgro) before digestion with 2.5 ml 1× Detachment reagent (DRX 92-0009) for about 2 minutes. PBS (20 ml) was then added to the plate, and the cells were transferred to a 50 ml centrifuge tube, and centrifuged at room temperature using BD Dynac III, at 1200 rpm for 5 minutes. […] The plates were then incubated at room temperature for about 30 minutes before addition of Eu-cAMP tracer solution (100, PerkinElmer) and then ULight-anti-cAMP solution (100) to each well.

[2] = target: T1, human D2R/β-arrestin; assay: β-Arrestin agonist assay (PathHunter); assay type: cell-based; details: CHO-K1 cell line expressing human D2R/β-arrestin
Description: (§1) The assays can be performed using proper detection reagents either prepared using routine methods known in the art or commercially available (e.g., PathHunter® β-Arrestin Detecting Kit (DiscoveRX)). Cells are grown to the necessary confluence and then detached. The cells are then centrifuged, washed, resuspended, and seeded into a container (e.g., 384-well plate). The cells are incubated (e.g., at 37° C., 5% CO2) for the appropriate period of time (e.g., 24 hours), before various compounds (e.g., a compound of the invention or a control compound) are added to the cells. After incubation of the cells with the compounds, detection reagents (e.g., a buffer containing Emerald II: Galactor-Star as provided DiscoveRX) are added to the cells. The read-out (e.g., luminescence, or fluorescence) is detected using standard equipment.
The detection reagent (9.6 μL, Buffer:Emerald II:Galactor-Star in a 19:5:1 ratio, i.e., 14.06 mL:3.7 mL:0.74 mL=18.5 mL) was then added to the agonist plates.

[3] = target: T1, human D2R/β-arrestin; assay: Gi/cAMP agonist assay (Lance Ultra cAMP, Forskolin); assay type: cell-based; details: CHO-K1 cell line expressing human D2R/β-arrestin
Description: as §1, with “PE Lance Ultra cAMP kit (TRF0263)).” for “PathHunter® β-Arrestin Detecting Kit (DiscoveRX)).”, “Afterwards, cAMP inducing agents (e.g., Forskolin) are added to and incubated with” for “After incubation of”, “before” for “with the compounds,”, “cAMP antibody, such” for “buffer containing Emerald II: Galactor-Star”, “ULight-anti-cAMP solution)” for “provided DiscoveRX)”, “Read-out” for “The read-out”
Compounds were pin-transferred (100 nL) to the cells, and incubated for 10 min. at 37° C. […] Eu-cAMP tracer solution (100, PerkinElmer, […] in 17.64 ml kit buffer) and ULight-anti-cAMP solution (100, 120 μL antibody in 17.88 ml kit buffer) was then added to each well.

[4] = target: T1, human D2R/β-arrestin; assay: cell-based; details: β-arrestin Antagonist, CHO-K1 cell line expressing human D2R/β-arrestin; quinpirole used as agonist

T1 sequence (P14416 whole entry): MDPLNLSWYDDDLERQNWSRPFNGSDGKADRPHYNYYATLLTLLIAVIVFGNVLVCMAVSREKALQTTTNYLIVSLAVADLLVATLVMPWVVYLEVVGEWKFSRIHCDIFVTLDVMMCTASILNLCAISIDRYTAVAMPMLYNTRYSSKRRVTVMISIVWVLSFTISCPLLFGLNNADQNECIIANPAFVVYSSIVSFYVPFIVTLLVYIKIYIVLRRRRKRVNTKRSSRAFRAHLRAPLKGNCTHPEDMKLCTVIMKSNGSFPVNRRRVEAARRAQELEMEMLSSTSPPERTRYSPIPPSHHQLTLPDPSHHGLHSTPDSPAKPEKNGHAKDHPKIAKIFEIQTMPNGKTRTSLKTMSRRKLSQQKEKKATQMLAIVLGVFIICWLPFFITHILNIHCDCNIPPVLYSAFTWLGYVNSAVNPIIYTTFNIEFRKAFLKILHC

With `CN(CC1CCN(CCOc2ccccc2F)CC1)C(c1ccc(F)cc1)c1ccccn1` (centres unmarked) [Compound 75, N-((1-(2-(2-fluorophenoxy)ethyl)piperidin-4-yl)methyl)-1-(4-fluorophenyl)-N-methyl-1-(pyridin-2-yl)methanamine] the IC50 [1] was 0.1 to 1 µM, the EC50 [2] was > 30 µM and the EC50 [3] was < 0.1 µM. The IC50 [4] was 0.1 to 1 µM.

In the case of `COc1cccc(OCCN2CCC(C(=O)NC(c3ccc(Cl)cc3)c3ccccn3)CC2)c1` (centres unmarked) [Compound 12, N-((4-chlorophenyl) (pyridin-2-yl)methyl)-1-(2-(3-methoxyphenoxy)ethyl) piperidine-4-carboxamide], the IC50 [1] is reported as 0.1 to 1 µM, the EC50 [2] is reported as > 30 µM and the EC50 [3] is reported as 10 to 30 µM. The IC50 [4] was 1 to 10 µM.

In the case of `CN(CC1CCN(CCOc2ccccc2)CC1)C(c1ccc(F)cc1)c1ccccn1` (centres unmarked) [Compound 74, 1-(4-fluorophenyl)-N-methyl-N-((1-(2-phenoxyethyl)piperidin-4-yl)methyl)-1-(pyridin-2-yl)methanamine], the IC50 [1] is reported as 0.1 to 1 µM, the EC50 [2] is reported as > 30 µM and the EC50 [3] is reported as < 0.1 µM. For the same compound, the IC50 [4] was 0.1 to 1 µM.

`O=C(NC(c1ccc(Cl)cc1)c1ccccn1)C1CCN(CCOc2ccncc2)CC1` (centres unmarked) [Compound 142, N-((4-chlorophenyl)(pyridin-2-yl)methyl)-1-(2-(pyridin-4-yloxy)ethyl)piperidine-4-carboxamide] was tested, and the IC50 [1] was 10 to 30 µM, the EC50 [2] was > 30 µM and the EC50 [3] was > 30 µM. The IC50 [4] was 10 to 30 µM.

For `O=C(NC(c1ccc(Cl)cc1)c1ccccn1)C1CCN(CCOc2ccc(F)cc2F)CC1` (single isomer, unassigned) [Compound 115a, N-((4-chlorophenyl)(pyridin-2-yl)methyl)-1-(2-(2,4-difluorophenoxy)ethyl)piperidine-4-carboxamide], the IC50 [1] was > 30 µM, the EC50 [2] was > 30 µM and the EC50 [3] was 0.1 to 1 µM. It also gave an IC50 [4] of 1 to 10 µM.

For `COc1ccccc1OCCN1CCC(C(=O)NCc2nccc3ccccc23)CC1` [Compound 108, N-(isoquinolin-1-ylmethyl)-1-(2-(2-methoxyphenoxy)ethyl)piperidine-4-carboxamide], the IC50 [1] was > 30 µM, the EC50 [2] was > 30 µM and the EC50 [3] was < 0.1 µM. It also gave an IC50 [4] of 1 to 10 µM.

In the case of `O=C(NC(c1ccc(Cl)cc1)c1ccccn1)C1CCN(CCOc2ccc(Cl)cc2)CC1` (centres unmarked) [Compound 2, 1-(2-(4-chlorophenoxy)ethyl)-N-((4-chlorophenyl)(pyridine-2-yl)methyl) piperidine-4-carboxamide], the IC50 [1] is reported as > 30 µM, the EC50 [2] is reported as > 30 µM and the EC50 [3] is reported as 0.1 to 1 µM. The IC50 [4] was 1 to 10 µM.

With `COc1cccc(C(NC(=O)C2CCN(CCOc3ccc(F)cc3F)CC2)c2ccccn2)c1` (single isomer, unassigned) [Compound 145b, 1-(2-(2,4-difluorophenoxy)ethyl)-N-((3-methoxyphenyl)(pyridin-2-yl)methyl)piperidine-4-carboxamide] the IC50 [1] was 0.1 to 1 µM, the EC50 [2] was > 30 µM and the EC50 [3] was > 30 µM. The IC50 [4] was 1 to 10 µM.

With `O=C(NC(c1ccc(Cl)cc1)c1ccccn1)C1CCN(CCOC2CCCCC2)CC1` (centres unmarked) [Compound 17, N-((4-chlorophenyl) (pyridin-2-yl)methyl)-1-(2-(cyclohexyloxy)ethyl) piperidine-4-carboxamide] the IC50 [1] was 0.1 to 1 µM, the EC50 [2] was > 30 µM and the EC50 [3] was > 30 µM. For the same compound, the IC50 [4] was 1 to 10 µM.

With `O=C(NC(c1ccc(Cl)cc1)c1ccccn1)C1CCN(CCOc2ccc(F)cc2F)CC1` (single isomer, unassigned) [Compound 115b, N-((4-chlorophenyl)(pyridin-2-yl)methyl)-1-(2-(2,4-difluorophenoxy)ethyl)piperidine-4-carboxamide] the IC50 [1] was 0.1 to 1 µM, the EC50 [2] was > 30 µM and the EC50 [3] was > 30 µM. It also gave an IC50 [4] of 0.1 to 1 µM.

For `COCCN1CCC(C(=O)NC(c2ccc(Cl)cc2)c2ccccn2)CC1` (centres unmarked) [Compound 65, N-((4-chlorophenyl)(pyridin-2-yl)methyl)-1-(2-methoxyethyl)piperidine-4-carboxamide], the IC50 [1] was 1 to 10 µM, the EC50 [2] was > 30 µM and the EC50 [3] was > 30 µM. It also gave an IC50 [4] of 10 to 30 µM.

— patent publication US10752588B2 (The Broad Institute, Inc., priority 2014, dated 2020)
